Structures can show the parent of a compound that is named as a salt.
How the values were obtained:
μ-opioid receptors [1] = assay: Evaluation of antagonist activity, guinea pig ileum test (responses to DAMGO)
Method: (§1) Agonist/antagonist activity at the μ-opioid receptor was determined using the well known guinea pig ileum test. Briefly, an a section of ileum section was placed in a stabilizing solution in a tensed state. Transducers were used to measure changes in tension upon electrical stimulation to the tissue before and after challenge with a potential agonist/antagonist Using a control, constriction inhibition, and constriction inhibition cancellation, may be measured.
(§2) The results are expressed as a percent of the control response to DAMGO (decrease in which contract amplitude)

μ-opioid receptors [2] = assay: Evaluation of agonist activity, guinea pig ileum test; conditions: for Response to the compound + Naloxone (1.0E−07 M): compound 1.0E−04 M + naloxone 1.0E−07 M
Method: as §1, §2

[3] = 1.0E−08 M, control DAMGO 1.0E−07 M = 100

Compound	Responses to DAMGO (1.0E−07 M) in the presence of increasing concentrations of the compounds (μ-opioid receptors [1]; 1.0E−04 M)	Responses to DAMGO (1.0E−07 M) in the presence of increasing concentrations of the compounds (μ-opioid receptors [1]; 1.0E−05 M)	Responses to DAMGO (1.0E−07 M) in the presence of increasing concentrations of the compounds (μ-opioid receptors [1]; 1.0E−06 M)	Responses to DAMGO (1.0E−07 M) in the presence of increasing concentrations of the compounds (μ-opioid receptors [1]; 1.0E−07 M)	Responses to DAMGO (1.0E−07 M) in the presence of increasing concentrations of the compounds (μ-opioid receptors [1]; 1.0E−08 M)	Responses to DAMGO (1.0E−07 M) in the presence of increasing concentrations of the compounds (μ-opioid receptors [1]; 3.0E−05 M)	Responses to DAMGO (1.0E−07 M) in the presence of increasing concentrations of the compounds (μ-opioid receptors [1]; 3.0E−06 M)	Responses to DAMGO (1.0E−07 M) in the presence of increasing concentrations of the compounds (μ-opioid receptors [1]; 3.0E−07 M)	Responses to DAMGO (1.0E−07 M) in the presence of increasing concentrations of the compounds (μ-opioid receptors [1]; 3.0E−08 M)	Responses to increasing concentrations of the compounds (μ-opioid receptors [2]; 1.0E−04 M)	Responses to increasing concentrations of the compounds (μ-opioid receptors [2]; 1.0E−05 M)	Responses to increasing concentrations of the compounds (μ-opioid receptors [2]; 1.0E−06 M)	Responses to increasing concentrations of the compounds (μ-opioid receptors [2]; 1.0E−07 M)	Responses to increasing concentrations of the compounds (μ-opioid receptors [2]; [3])	Responses to increasing concentrations of the compounds (μ-opioid receptors [2]; 3.0E−05 M)	Responses to increasing concentrations of the compounds (μ-opioid receptors [2]; 3.0E−06 M)	Responses to increasing concentrations of the compounds (μ-opioid receptors [2]; 3.0E−07 M)	Responses to increasing concentrations of the compounds (μ-opioid receptors [2]; 3.0E−08 M)	Response to the compound + Naloxone (1.0E−07 M) (μ-opioid receptors [2])	also measured
CCCOC1C[C@@H](O)[C@@H]2Oc3c(O)ccc4c3[C@@]23CC[N+](C)(CC2CC2)[C@H](C4)[C@]13O (stereo partly drawn) [(R)-CPM, trifluoroacetate]	22% of the control response to DAMGO	5% of the control response to DAMGO	32% of the control response to DAMGO	90% of the control response to DAMGO	100% of the control response to DAMGO	12% of the control response to DAMGO	11% of the control response to DAMGO	69% of the control response to DAMGO	100% of the control response to DAMGO	22% of the control response to DAMGO	0% of the control response to DAMGO	0% of the control response to DAMGO	0% of the control response to DAMGO	0% of the control response to DAMGO	5% of the control response to DAMGO	0% of the control response to DAMGO	0% of the control response to DAMGO	0% of the control response to DAMGO	17% of the control response to DAMGO	–
C[N@+]1(CC2CCCC2)CC[C@]23c4c5ccc(O)c4O[C@H]2C(=O)CC[C@@]3(O)[C@H]1C5 [(R)-CPTM, (R)-17-cyclopentylmethyl-4,5α-epoxy-3,14-dihydroxy-17-methyl-6-oxomorphinanium iodide]	40% of the control response to DAMGO	28% of the control response to DAMGO	21% of the control response to DAMGO	84% of the control response to DAMGO	100% of the control response to DAMGO	34% of the control response to DAMGO	−1% of the control response to DAMGO	63% of the control response to DAMGO	96% of the control response to DAMGO	18% of the control response to DAMGO	0% of the control response to DAMGO	0% of the control response to DAMGO	0% of the control response to DAMGO	0% of the control response to DAMGO	12% of the control response to DAMGO	0% of the control response to DAMGO	0% of the control response to DAMGO	0% of the control response to DAMGO	18% of the control response to DAMGO	–
C[C@@H](NC(=O)[C@@H](N)Cc1ccc(O)cc1)C(=O)NCC(=O)N(C)[C@@H](Cc1ccccc1)C(=O)NCCO [DAMGO, reference compound]	–	–	–	–	–	–	–	–	–	–	–	103% of the control response to DAMGO	96% of the control response to DAMGO	57% of the control response to DAMGO	–	–	–	–	–	Responses to increasing concentrations of the compounds (μ-opioid receptors [2]; 1.0E−09 M): 9% of the control response to DAMGO; Response to DAMGO + Naloxone (1.0E−07 M) (μ-opioid receptors [2]; DAMGO after the highest concentration, + naloxone 1.0E−07 M): 4% of the control response to DAMGO

Reference: patent publication US20090047279A1, “(R)-N-Stereoisomers of 7,8-Saturated-4,5-Epoxy-Morphinanium Analogs” (Progenics Pharmaceuticals, Inc., priority 2006, published 2009)
